From BindingDB's records for doi:10.7270/Q2J67FB5 (Nmmlsc, 2007) come the findings set out here.

A value given as a limit tells only on which side of the number the result lay.

Usually IC50 stands for the concentration that inhibits the measured activity by half.

This experiment deals with T1, fMet-Leu-Phe receptor (Homo sapiens, UniProt P21462).
T1 sequence (P21462 whole entry): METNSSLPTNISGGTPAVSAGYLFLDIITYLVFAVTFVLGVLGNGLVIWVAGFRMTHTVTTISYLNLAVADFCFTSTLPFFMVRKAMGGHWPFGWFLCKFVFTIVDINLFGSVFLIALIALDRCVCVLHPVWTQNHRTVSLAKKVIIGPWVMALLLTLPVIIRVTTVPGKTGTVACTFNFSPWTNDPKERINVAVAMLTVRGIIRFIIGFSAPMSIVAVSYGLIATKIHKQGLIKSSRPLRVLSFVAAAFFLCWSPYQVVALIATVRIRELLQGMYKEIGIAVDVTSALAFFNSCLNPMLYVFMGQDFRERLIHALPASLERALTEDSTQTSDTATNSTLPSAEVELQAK
Put plainly: FPR ligands, dose response (AID 519).

For `CC1=C(C(=O)OC(C)C)[C@]2(C(=O)N(CC(N)=O)c3ccccc32)C(C#N)C(=N)O1` (stereo partly drawn) [(3R)-6'-amino-1-(2-amino-2-keto-ethyl)-5'-cyano-2-keto-2'-methyl-spiro[indoline-3,4'-pyran]-3'-carboxylic acid isopropyl ester], the IC50 was over 66.7 µM.

Regarding `COC(=O)c1[nH]c(C)c(C(=O)C2C(=O)C(=O)N(CCN3CCOCC3)C2c2cccs2)c1C` (stereo unspecified), inhibition was half-maximal at 5 µM (IC50).

`CCOc1ccc(C(=O)C2C(=O)C(=O)N(c3nc(C)c(C)s3)C2c2ccco2)cc1` (stereo unspecified) [(4Z)-1-(4,5-dimethyl-1,3-thiazol-2-yl)-4-[(4-ethoxyphenyl)-hydroxymethylidene]-5-(furan-2-yl)pyrrolidine-2,3-dione] came in with an IC50 of 57.7 µM.

Molecule `C=C(c1ccc(Br)cc1)c1sc(N2CCCC2)nc1O` [(5Z)-5-[1-(4-bromophenyl)ethylidene]-2-(1-pyrrolidinyl)-4-thiazolone] came in with an IC50 of over 66.7 µM.

Molecule `C=CCOc1ccc(C2C(C(=O)c3cccs3)C(=O)C(=O)N2c2nnc(C)s2)cc1` (stereo unspecified) [1-(5-methyl-1,3,4-thiadiazol-2-yl)-4-oxidanyl-2-(4-prop-2-enoxyphenyl)-3-thiophen-2-ylcarbonyl-2H-pyrrol-5-one] showed an IC50 of 40.5 µM.

Turning to `COc1cc(C2C(C(=O)c3ccco3)C(=O)C(=O)N2CCc2ccccc2)ccc1O` (stereo unspecified) [3-(furan-2-carbonyl)-4-hydroxy-2-(4-hydroxy-3-methoxyphenyl)-1-(2-phenylethyl)-2H-pyrrol-5-one], the IC50 was over 66.7 µM.

As for `CC1Cc2cc(C(=O)C3C(=O)C(=O)N(CCN4CCOCC4)C3c3ccccc3F)ccc2O1` (stereo unspecified) [(4E)-5-(2-fluorophenyl)-4-[(2-methyl-2,3-dihydro-1-benzofuran-5-yl)-oxidanyl-methylidene]-1-(2-morpholin-4-ylethyl)pyrrolidine-2,3-dione], the IC50 is over 66.7 µM.

In the case of `COc1cccc2cc(C(=O)C3C(=O)C(=O)N(Cc4ccco4)C3c3cccnc3)oc12` (stereo unspecified) [1-(2-furanylmethyl)-4-hydroxy-3-[(7-methoxy-2-benzofuranyl)-oxomethyl]-2-(3-pyridinyl)-2H-pyrrol-5-one], the IC50 was over 66.7 µM.

In the case of `Cc1ccc(C2C(C(=O)c3ccc(Br)cc3)C(=O)C(=O)N2Cc2ccco2)o1` (stereo unspecified) [(4Z)-4-[(4-bromophenyl)-hydroxy-methylene]-1-(2-furfuryl)-5-(5-methyl-2-furyl)pyrrolidine-2,3-quinone], the IC50 is over 66.7 µM.

`O=C1C(=O)N(CCc2ccccc2)C(c2cccnc2)C1C(=O)c1ccco1` (stereo unspecified) [3-(furan-2-carbonyl)-4-hydroxy-1-(2-phenylethyl)-2-pyridin-3-yl-2H-pyrrol-5-one]: the IC50 is over 66.7 µM.

In turn, `O=C1C(=O)N(Cc2ccccc2)C(c2ccncc2)C1C(=O)c1ccco1` (stereo unspecified) [1-Benzyl-4-(furan-2-carbonyl)-3-hydroxy-5-pyridin-4-yl-1,5-dihydro-pyrrol-2-one] returned an IC50 of 13.6 µM.

Regarding `COc1cccc(C2C(C(=O)c3ccc(OC)c(OC)c3)C(=O)C(=O)N2c2cc(C)on2)c1` (stereo unspecified) [(4E)-4-[(3,4-dimethoxyphenyl)-hydroxy-methylene]-5-(3-methoxyphenyl)-1-(5-methylisoxazol-3-yl)pyrrolidine-2,3-quinone], the IC50 is over 66.7 µM.

Molecule `CCOc1ccc(C2C(C(=O)c3ccco3)C(=O)C(=O)N2Cc2cccnc2)cc1` (stereo unspecified) [2-(4-ethoxyphenyl)-3-(furan-2-carbonyl)-4-hydroxy-1-(pyridin-3-ylmethyl)-2H-pyrrol-5-one] had a 50% inhibitory concentration (IC50) of 15.3 µM.

On to `O=C1Nc2ccccc2/C1=C1/SC(=S)N(CC2CCCO2)C1=O` (stereo unspecified) [(5Z)-5-(2-ketoindolin-3-ylidene)-3-(tetrahydrofurfuryl)-2-thioxo-thiazolidin-4-one], for which the IC50 is over 66.7 µM.

With `O=C1C(=O)N(CCOCCO)C(c2cccs2)C1C(=O)c1cccs1` (stereo unspecified) [1-[2-(2-hydroxyethyloxy)ethyl]-4-oxidanyl-2-thiophen-2-yl-3-thiophen-2-ylcarbonyl-2H-pyrrol-5-one], the IC50 came out at 21.4 µM.

Molecule `C=CCOc1ccc(C2C(C(=O)c3ccco3)C(=O)C(=O)N2Cc2cccnc2)cc1` (stereo unspecified) [3-(furan-2-carbonyl)-4-hydroxy-2-(4-prop-2-enoxyphenyl)-1-(pyridin-3-ylmethyl)-2H-pyrrol-5-one] registered an IC50 of 9.7 µM.

Regarding `COCc1cc(C2C(C(=O)c3ccco3)C(=O)C(=O)N2CCOCCO)ccc1O` (stereo unspecified) [3-(furan-2-carbonyl)-4-hydroxy-1-[2-(2-hydroxyethoxy)ethyl]-2-[4-hydroxy-3-(methoxymethyl)phenyl]-2H-pyrrol-5-one], the IC50 was found to be 29.7 µM.

`Cc1ccc(C2c3c([nH]c(=S)[nH]c3=O)N=C3CC(C)(C)CC(=O)C32)cc1` (stereo unspecified) [8,8-dimethyl-5-(4-methylphenyl)-2-sulfanylidene-5,7,9,10-tetrahydro-1H-pyrimido[4,5-b]quinoline-4,6-dione] had an IC50 of 47.9 µM.

On to `COCCCN1C(=O)C(=O)C(C(=O)c2ccccc2)C1c1ccc2c(c1)OCO2` (stereo unspecified) [(4E)-5-(1,3-benzodioxol-5-yl)-1-(3-methoxypropyl)-4-[oxidanyl(phenyl)methylidene]pyrrolidine-2,3-dione], for which the IC50 turned out to be 29.6 µM.

In turn, `COCCCN1C(=O)C(=O)C(C(=O)c2ccco2)C1c1cccc(Br)c1` (stereo unspecified) [2-(3-bromophenyl)-3-(furan-2-carbonyl)-4-hydroxy-1-(3-methoxypropyl)-2H-pyrrol-5-one] registered an IC50 of 31.2 µM.

Turning to `Cc1ccsc1C1C2C(=O)CC(C)(C)CC2=Nc2ncnn21` (stereo unspecified) [6,6-dimethyl-9-(3-methyl-2-thienyl)-1,5,7,9-tetrahydro-[1,2,4]triazolo[5,1-b]quinazolin-8-one], the IC50 was 12.5 µM.

In the case of `COC(=O)c1[nH]c(C)c(C(=O)C2C(=O)C(=O)N(CCCN3CCOCC3)C2c2ccccn2)c1C` (stereo unspecified) [methyl 4-{[4-hydroxy-1-[3-(4-morpholinyl)propyl]-5-oxo-2-(2-pyridinyl)-2,5-dihydro-1H-pyrrol-3-yl]carbonyl}-3,5-dimethyl-1H-pyrrole-2-carboxylate], half-maximal inhibition (IC50) was put at 9.7 µM.

In turn, `CCOc1ccc(C2C(C(=O)c3ccco3)C(=O)C(=O)N2CCCn2ccnc2)cc1` (stereo unspecified) [2-(4-ethoxyphenyl)-3-(furan-2-carbonyl)-4-hydroxy-1-(3-imidazol-1-ylpropyl)-2H-pyrrol-5-one] displayed an IC50 of 9.9 µM.

The molecule `COCCN1C(=O)C(=O)C(C(=O)c2ccco2)C1c1cccc(Oc2ccccc2)c1` (stereo unspecified) [3-(furan-2-carbonyl)-4-hydroxy-1-(2-methoxyethyl)-2-(3-phenoxyphenyl)-2H-pyrrol-5-one] had an IC50 of 56 µM.

As to `COc1ccc(OC)c(C2C(C(=O)c3ccco3)C(=O)C(=O)N2CCCN2CCOCC2)c1` (stereo unspecified) [2-(2,5-dimethoxyphenyl)-3-(furan-2-carbonyl)-4-hydroxy-1-(3-morpholin-4-ylpropyl)-2H-pyrrol-5-one], half-maximal inhibition (IC50) required 26.4 µM.

`COC(=O)c1[nH]c(C)c(C(=O)C2C(=O)C(=O)N(CCN3CCOCC3)C2c2cccnc2)c1C` (stereo unspecified) [4-[(E)-hydroxy-[1-[2-(4-morpholinyl)ethyl]-4,5-dioxo-2-(3-pyridinyl)-3-pyrrolidinylidene]methyl]-3,5-dimethyl-1H-pyrrole-2-carboxylic acid methyl ester]: the 50% inhibitory concentration (IC50) was found to be 20.8 µM.

For `Cc1cc(N2C(=O)C(=O)C(C(=O)c3ccc(F)cc3)C2c2cccc(Br)c2)no1` (stereo unspecified) [(4E)-5-(3-bromophenyl)-4-[(4-fluorophenyl)-hydroxy-methylene]-1-(5-methylisoxazol-3-yl)pyrrolidine-2,3-quinone], the IC50 is over 66.7 µM.

`Cc1ccc(C)c(C(=O)C2C(=O)C(=O)N(CCCn3ccnc3)C2c2ccncc2)c1` (stereo unspecified) [(4E)-4-[(2,5-dimethylphenyl)-hydroxy-methylene]-1-(3-imidazol-1-ylpropyl)-5-(4-pyridyl)pyrrolidine-2,3-quinone] gave an IC50 of over 66.7 µM.

Molecule `COc1ccc(C2C(C(=O)c3ccco3)C(=O)C(=O)N2CCc2ccccc2)cc1OC` (stereo unspecified) [2-(3,4-dimethoxyphenyl)-3-(furan-2-carbonyl)-4-hydroxy-1-(2-phenylethyl)-2H-pyrrol-5-one] yielded an IC50 of 36.9 µM.

The molecule `COCCN1C(=O)C(=O)C(C(=O)c2cccs2)C1c1ccccc1` (stereo unspecified) [1-(2-methoxyethyl)-4-oxidanyl-2-phenyl-3-thiophen-2-ylcarbonyl-2H-pyrrol-5-one] registered an IC50 of over 66.7 µM.

As to `Cc1ccc(C2C(C(=O)c3ccc(Cl)cc3)C(=O)C(=O)N2CC2CCCO2)o1` (stereo unspecified) [(4Z)-4-[(4-chlorophenyl)-hydroxy-methylene]-5-(5-methyl-2-furyl)-1-(tetrahydrofurfuryl)pyrrolidine-2,3-quinone], 11.6 µM corresponded to half-maximal inhibition (IC50).

`COc1cc(C2C(C(=O)c3ccc(C)o3)C(=O)C(=O)N2CCc2ccccc2)ccc1O` (stereo unspecified) [2-(3-methoxy-4-oxidanyl-phenyl)-3-(5-methylfuran-2-yl)carbonyl-4-oxidanyl-1-(2-phenylethyl)-2H-pyrrol-5-one] came in with an IC50 of 19.7 µM.

Molecule `Cc1ccc(C(=O)C2C(=O)C(=O)N(CCN3CCOCC3)C2c2cccnc2)cc1` (stereo unspecified) [(4Z)-4-[(4-methylphenyl)-oxidanyl-methylidene]-1-(2-morpholin-4-ylethyl)-5-pyridin-3-yl-pyrrolidine-2,3-dione] registered an IC50 of over 66.7 µM.

`O=C1C(=O)N(Cc2ccccc2)C(c2ccco2)C1C(=O)c1ccco1` (stereo unspecified) [1-Benzyl-4-(furan-2-carbonyl)-5-furan-2-yl-3-hydroxy-1,5-dihydro-pyrrol-2-one]: the IC50 stood at 12.4 µM.

In turn, `COc1ccc(OC)c(C2C(C(=O)c3ccccc3)C(=O)C(=O)N2Cc2ccco2)c1` (stereo unspecified) [(4Z)-5-(2,5-dimethoxyphenyl)-1-(2-furanylmethyl)-4-[hydroxy(phenyl)methylidene]pyrrolidine-2,3-dione] returned an IC50 of 3.4 µM.

On to `O=C1C(=O)N(c2ncccn2)C(c2ccc(Cl)c(Cl)c2)C1C(=O)c1ccco1` (stereo unspecified) [2-(3,4-dichlorophenyl)-3-(furan-2-carbonyl)-4-hydroxy-1-pyrimidin-2-yl-2H-pyrrol-5-one], for which the IC50 is over 66.7 µM.
